Measured values as given in ChEMBL document CHEMBL1201862, “PubChem BioAssay data set” (2004).
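Dose response: 5 concentrations. Exposure: 48 h. Format: 96-well plates. Endpoint: linear interpolation; highest concentration if not reached. At the GI50, growth is halved.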 The source made the active and inactive calls. Cut-off read from the data, not from the text of the source: active = GI50 up to about 1.1 µM and inactive = higher.

Key:
Assay in all cases: NCI tumour cell line growth inhibition, 48 h
786-0 = test system: 786-0
A549 = test system: A549
ACHN = test system: ACHN
BT-549 = test system: BT-549
CAKI-1 = test system: CAKI-1
COLO 205 = test system: COLO 205
DU-145 = test system: DU-145
EKVX = test system: EKVX
HCC 2998 = test system: HCC 2998
HCT-116 = test system: HCT-116
HCT-15 = test system: HCT-15
HL-60 = test system: HL-60
HOP-62 = test system: HOP-62
HOP-92 = test system: HOP-92
HT-29 = test system: HT-29
Hs-578T = test system: Hs-578T
IGROV-1 = test system: IGROV-1
KM12 = test system: KM12
M14 = test system: M14
MCF7 = test system: MCF7
MDA-MB-231 = test system: MDA-MB-231
MDA-MB-435 = test system: MDA-MB-435
MDA-N = test system: MDA-N
Malme-3M = test system: Malme-3M
NCI-H23 = test system: NCI-H23
NCI-H460 = test system: NCI-H460
NCI-H522 = test system: NCI-H522
NCI/ADR-RES = test system: NCI/ADR-RES
OVCAR-3 = test system: OVCAR-3
OVCAR-4 = test system: OVCAR-4
OVCAR-5 = test system: OVCAR-5
RPMI-8226 = test system: RPMI-8226
SF-268 = test system: SF-268
SF-295 = test system: SF-295
SF-539 = test system: SF-539
SK-MEL-28 = test system: SK-MEL-28
SK-MEL-2 = test system: SK-MEL-2
SK-MEL-5 = test system: SK-MEL-5
SK-OV-3 = test system: SK-OV-3
SN12C = test system: SN12C
SNB-19 = test system: SNB-19
SNB-75 = test system: SNB-75
SR = test system: SR
T47D = test system: T47D
TK-10 = test system: TK-10
U-251 = test system: U-251
UACC-62 = test system: UACC-62
UO-31 = test system: UO-31
A498 = test system: A498
K562 = test system: K562
LOX IMVI = test system: LOX IMVI
MOLT-4 = test system: MOLT-4
NCI-H226 = test system: NCI-H226
OVCAR-8 = test system: OVCAR-8
PC-3 = test system: PC-3
RXF 393 = test system: RXF 393
SW-620 = test system: SW-620
UACC-257 = test system: UACC-257

## CC1(C)O[C@H]2Cn3c(c(C#N)c4ccccc43)[C@H]2O1
786-0
  GI50: > 100 µM (inactive)
A549
  GI50: > 100 µM (inactive)
ACHN
  GI50: > 100 µM (inactive)
BT-549
  GI50: > 100 µM (inactive)
CAKI-1
  GI50: 85.1 µM (inactive)
COLO 205
  GI50: > 100 µM (inactive)
DU-145
  GI50: > 100 µM (inactive)
EKVX
  GI50: > 100 µM (inactive)
HCC 2998
  GI50: > 100 µM (inactive)
HCT-116
  GI50: > 100 µM (inactive)
HCT-15
  GI50: > 100 µM
HL-60
  GI50: > 100 µM (inactive)
HOP-62
  GI50: > 100 µM (inactive)
HOP-92
  GI50: > 100 µM (inactive)
HT-29
  GI50: > 100 µM (inactive)
Hs-578T
  GI50: > 100 µM (inactive)
IGROV-1
  GI50: > 100 µM (inactive)
KM12
  GI50: > 100 µM (inactive)
M14
  GI50: > 100 µM (inactive)
MCF7
  GI50: > 100 µM (inactive)
MDA-MB-231
  GI50: > 100 µM (inactive)
MDA-MB-435
  GI50: > 100 µM (inactive)
MDA-N
  GI50: > 100 µM (inactive)
Malme-3M
  GI50: > 100 µM (inactive)
NCI-H23
  GI50: > 100 µM (inactive)
NCI-H460
  GI50: > 100 µM (inactive)
NCI-H522
  GI50: > 100 µM (inactive)
NCI/ADR-RES
  GI50: > 100 µM (inactive)
OVCAR-3
  GI50: > 100 µM (inactive)
OVCAR-4
  GI50: > 100 µM (inactive)
OVCAR-5
  GI50: > 100 µM (inactive)
RPMI-8226
  GI50: > 100 µM (inactive)
SF-268
  GI50: > 100 µM (inactive)
SF-295
  GI50: > 100 µM (inactive)
SF-539
  GI50: > 100 µM (inactive)
SK-MEL-28
  GI50: > 100 µM (inactive)
SK-MEL-2
  GI50: > 100 µM (inactive)
SK-MEL-5
  GI50: > 100 µM (inactive)
SK-OV-3
  GI50: > 100 µM (inactive)
SN12C
  GI50: > 100 µM (inactive)
SNB-19
  GI50: > 100 µM (inactive)
SNB-75
  GI50: 39.8 µM (inactive)
SR
  GI50: > 100 µM (inactive)
T47D
  GI50: > 100 µM (inactive)
TK-10
  GI50: > 100 µM (inactive)
U-251
  GI50: > 100 µM (inactive)
UACC-62
  GI50: > 100 µM (inactive)
UO-31
  GI50: > 100 µM (inactive)

## N/C(=N\c1ccc(Cl)cc1)NS(=O)(=O)c1ccc(-c2ccccn2)s1
786-0
  GI50: 15.2 µM (inactive)
A498
  GI50: 12.5 µM (inactive)
A549
  GI50: 19.1 µM (inactive)
ACHN
  GI50: 16.4 µM (inactive)
BT-549
  GI50: 17.3 µM (inactive)
CAKI-1
  GI50: 2.07 µM (inactive)
COLO 205
  GI50: 17.4 µM (inactive)
DU-145
  GI50: 17 µM (inactive)
EKVX
  GI50: 12.1 µM (inactive)
HCT-116
  GI50: 16.9 µM (inactive)
HCT-15
  GI50: 17.5 µM
HOP-62
  GI50: 18.1 µM (inactive)
HOP-92
  GI50: 13 µM (inactive)
HT-29
  GI50: 18.3 µM (inactive)
Hs-578T
  GI50: 24.8 µM (inactive)
IGROV-1
  GI50: 16.1 µM (inactive)
K562
  GI50: 15.4 µM (inactive)
KM12
  GI50: 29.7 µM (inactive)
LOX IMVI
  GI50: 17.5 µM (inactive)
M14
  GI50: 17.8 µM (inactive)
MCF7
  GI50: 17.1 µM (inactive)
MDA-MB-231
  GI50: 14.2 µM (inactive)
MDA-N
  GI50: 6.89 µM (inactive)
MOLT-4
  GI50: 2.41 µM (inactive)
Malme-3M
  GI50: 12.4 µM (inactive)
NCI-H226
  GI50: 17.3 µM (inactive)
NCI-H23
  GI50: 15.9 µM (inactive)
NCI-H460
  GI50: 17.7 µM (inactive)
NCI-H522
  GI50: 9.27 µM (inactive)
NCI/ADR-RES
  GI50: 18.1 µM (inactive)
OVCAR-3
  GI50: 22.8 µM (inactive)
OVCAR-4
  GI50: 11.5 µM (inactive)
OVCAR-5
  GI50: 21.4 µM (inactive)
OVCAR-8
  GI50: 19 µM (inactive)
PC-3
  GI50: 14.2 µM (inactive)
RPMI-8226
  GI50: 16.9 µM (inactive)
RXF 393
  GI50: 16.8 µM (inactive)
SF-268
  GI50: 17.3 µM (inactive)
SF-295
  GI50: 17.5 µM (inactive)
SF-539
  GI50: 14.9 µM (inactive)
SK-MEL-28
  GI50: 19.4 µM (inactive)
SK-MEL-2
  GI50: 14.1 µM (inactive)
SK-MEL-5
  GI50: 15.8 µM (inactive)
SK-OV-3
  GI50: 22.1 µM (inactive)
SN12C
  GI50: 15.5 µM (inactive)
SNB-19
  GI50: 16.3 µM (inactive)
SNB-75
  GI50: 21.8 µM (inactive)
SR
  GI50: 14.5 µM (inactive)
SW-620
  GI50: 19.4 µM (inactive)
T47D
  GI50: 12.8 µM (inactive)
TK-10
  GI50: 17.3 µM (inactive)
U-251
  GI50: 15 µM (inactive)
UACC-257
  GI50: 7.91 µM (inactive)
UACC-62
  GI50: 13.4 µM (inactive)
UO-31
  GI50: 17.7 µM (inactive)
